Activity calls are given as the source filed them. No cut-off for these calls is given here.
How the values were obtained:
Plasmodium falciparum [1] = experiment: Antimalarial activity against chloroquine-resistant Plasmodium falciparum W2 in human erythrocytes at 20 ug/mL by [3H]hypoxanthine uptake; type: functional
PBMC [2] = experiment: Antiproliferative activity against PHA-stimulated human PBMC at 20 ug/mL after 72 hrs by MTT assay relative to control; type: cell-based
Plasmodium falciparum [3] = experiment: Antimalarial activity against chloroquine-resistant Plasmodium falciparum W2 in human erythrocytes by [3H]hypoxanthine uptake; type: functional, organism-based
PBMC [4] = experiment: Antiproliferative activity against PHA-stimulated human PBMC after 72 hrs by MTT assay; type: cell-based
Plasmodium berghei [5] = experiment: Antiplasmodial activity as reduced parasitaemia after 7 days in Plasmodium berghei NK65 infected BALB/c mice (Mus musculus) at 5 mg/kg/day over 4 days; type: functional; set-up: scale not given: the % may be the effect or the level left
Plasmodium berghei [6] = experiment: Antiplasmodial activity as reduced parasitaemia after 7 days in Plasmodium berghei NK65 infected BALB/c mice (Mus musculus) at 10 mg/kg/day over 4 days; type: functional; set-up: scale not given: the % may be the effect or the level left
Plasmodium berghei [7] = experiment: Antiplasmodial activity as reduced parasitaemia after 5 days in Plasmodium berghei NK65 infected BALB/c mice (Mus musculus) at 15 mg/kg/day over 4 days; type: functional; set-up: scale not given: the % may be the effect or the level left
Plasmodium berghei [8] = experiment: Antiplasmodial activity as reduced parasitaemia after 5 day sin Plasmodium berghei NK65 infected BALB/c mice (Mus musculus) at 10 mg/kg/day over 4 days; type: functional; set-up: scale not given: the % may be the effect or the level left
Plasmodium berghei [9] = experiment: Antiplasmodial activity as reduced parasitaemia after 5 days in Plasmodium berghei NK65 infected BALB/c mice (Mus musculus) at 20 mg/kg/day over 4 days; type: functional; set-up: scale not given: the % may be the effect or the level left
Plasmodium berghei [10] = experiment: Antiplasmodial activity as reduced parasitaemia after 7 days in Plasmodium berghei NK65 infected BALB/c mice (Mus musculus) at 20 mg/kg/day over 4 days; type: functional; set-up: scale not given: the % may be the effect or the level left
Plasmodium berghei [11] = experiment: Antiplasmodial activity as reduced parasitaemia after 7 days in Plasmodium berghei NK65 infected BALB/c mice (Mus musculus) at 15 mg/kg/day over 4 days; type: functional; set-up: scale not given: the % may be the effect or the level left
Plasmodium berghei [12] = experiment: Antiplasmodial activity after 5 days as reduced parasitaemia in Plasmodium berghei NK65 infected BALB/c mice (Mus musculus) at 5 mg/kg/day for 4 days; type: functional; set-up: scale not given: the % may be the effect or the level left

Compound: CN(C)c1ccc(/C=N/NC(N)=O)cc1
- Activity (Plasmodium falciparum [1]): inactive
- Activity (PBMC [2]): 84%

Compound: COc1ccc(/C=N/NC(N)=S)cc1
- Activity (Plasmodium falciparum [1]): inactive
- Activity (PBMC [2]): 90%

Compound: COc1cc(/C=N/NC(N)=O)cc(OC)c1OC
- Activity (Plasmodium falciparum [1]): inactive
- Activity (PBMC [2]): 107%

Compound: CC/C(=N/NC(N)=S)C(C)CC=C(C)C (stereo not drawn)
- IC50 (Plasmodium falciparum [3]): 9.2 µM
- IC50 (PBMC [4]): 31.3 µM
- inhibition at 20 µg/mL (Plasmodium falciparum [1]): 99%
- Activity (PBMC [2]): 60%

Compound: CC/C(=N/NC(N)=O)C(C)CC=C(C)C (stereo not drawn)
- Activity (Plasmodium falciparum [1]): inactive
- Activity (PBMC [2]): 0%

Compound: COc1cc(/C=N/NC(N)=S)cc(OC)c1OC
- Activity (Plasmodium falciparum [1]): inactive
- Activity (PBMC [2]): 78%

Compound: COc1cc(/C=N/NC(N)=O)ccc1O
- Activity (Plasmodium falciparum [1]): inactive
- Activity (PBMC [2]): 116%

Compound: COc1ccc(/C=N/NC(N)=O)cc1OC
- inhibition at 20 µg/mL (Plasmodium falciparum [1]): 32%
- Activity (PBMC [2]): 80%

Compound: CC1(C)C2CC=C(/C=N/NC(N)=O)C1C2 (stereo not drawn)
- Activity (Plasmodium falciparum [1]): inactive
- Activity (PBMC [2]): 110%

Compound: CCN(CC)CCCC(C)Nc1ccnc2cc(Cl)ccc12 (stereo not drawn) [CHLOROQUINE]
- IC50 (PBMC [4]): 5.1 µM

Compound: COc1ccc(/C=N/NC(N)=O)cc1
- inhibition at 20 µg/mL (Plasmodium falciparum [1]): 38%
- Activity (PBMC [2]): 141%

Compound: CC1(C)C2CC=C(/C=N/NC(N)=S)C1C2 (stereo not drawn)
- IC50 (Plasmodium falciparum [3]): 7.2 µM
- Activity (Plasmodium berghei [5]): 8%
- Activity (Plasmodium berghei [6]): 32%
- Activity (Plasmodium berghei [7]): 93%
- Activity (Plasmodium berghei [8]): 36%
- IC50 (PBMC [4]): 73.5 µM
- Activity (Plasmodium berghei [9]): 77.5%
- Activity (Plasmodium berghei [10]): 61%
- Activity (Plasmodium berghei [11]): 94.5%
- inhibition at 20 µg/mL (Plasmodium falciparum [1]): 95%
- Activity (Plasmodium berghei [12]): 0%
- Activity (PBMC [2]): 76%

Compound: CC(C)=CCC/C(C)=N\NC(N)=O
- Activity (Plasmodium falciparum [1]): inactive
- Activity (PBMC [2]): 107%

Compound: CC(C)=CCC/C(C)=N\NC(N)=S
- IC50 (Plasmodium falciparum [3]): 12.6 µM
- IC50 (PBMC [4]): 35.2 µM
- inhibition at 20 µg/mL (Plasmodium falciparum [1]): 100%
- Activity (PBMC [2]): 98%

Compound: CCCC/C(CC)=N\NC(N)=O
- Activity (Plasmodium falciparum [1]): inactive
- Activity (PBMC [2]): 89%
